Data on 1 compound can be found in publication PMC4574636 (Biochemical pharmacology, 2015).

The target in series [1] is T1, AOX1 (Homo sapiens, UniProt Q06278).
T1 sequence (Q06278 1-1338): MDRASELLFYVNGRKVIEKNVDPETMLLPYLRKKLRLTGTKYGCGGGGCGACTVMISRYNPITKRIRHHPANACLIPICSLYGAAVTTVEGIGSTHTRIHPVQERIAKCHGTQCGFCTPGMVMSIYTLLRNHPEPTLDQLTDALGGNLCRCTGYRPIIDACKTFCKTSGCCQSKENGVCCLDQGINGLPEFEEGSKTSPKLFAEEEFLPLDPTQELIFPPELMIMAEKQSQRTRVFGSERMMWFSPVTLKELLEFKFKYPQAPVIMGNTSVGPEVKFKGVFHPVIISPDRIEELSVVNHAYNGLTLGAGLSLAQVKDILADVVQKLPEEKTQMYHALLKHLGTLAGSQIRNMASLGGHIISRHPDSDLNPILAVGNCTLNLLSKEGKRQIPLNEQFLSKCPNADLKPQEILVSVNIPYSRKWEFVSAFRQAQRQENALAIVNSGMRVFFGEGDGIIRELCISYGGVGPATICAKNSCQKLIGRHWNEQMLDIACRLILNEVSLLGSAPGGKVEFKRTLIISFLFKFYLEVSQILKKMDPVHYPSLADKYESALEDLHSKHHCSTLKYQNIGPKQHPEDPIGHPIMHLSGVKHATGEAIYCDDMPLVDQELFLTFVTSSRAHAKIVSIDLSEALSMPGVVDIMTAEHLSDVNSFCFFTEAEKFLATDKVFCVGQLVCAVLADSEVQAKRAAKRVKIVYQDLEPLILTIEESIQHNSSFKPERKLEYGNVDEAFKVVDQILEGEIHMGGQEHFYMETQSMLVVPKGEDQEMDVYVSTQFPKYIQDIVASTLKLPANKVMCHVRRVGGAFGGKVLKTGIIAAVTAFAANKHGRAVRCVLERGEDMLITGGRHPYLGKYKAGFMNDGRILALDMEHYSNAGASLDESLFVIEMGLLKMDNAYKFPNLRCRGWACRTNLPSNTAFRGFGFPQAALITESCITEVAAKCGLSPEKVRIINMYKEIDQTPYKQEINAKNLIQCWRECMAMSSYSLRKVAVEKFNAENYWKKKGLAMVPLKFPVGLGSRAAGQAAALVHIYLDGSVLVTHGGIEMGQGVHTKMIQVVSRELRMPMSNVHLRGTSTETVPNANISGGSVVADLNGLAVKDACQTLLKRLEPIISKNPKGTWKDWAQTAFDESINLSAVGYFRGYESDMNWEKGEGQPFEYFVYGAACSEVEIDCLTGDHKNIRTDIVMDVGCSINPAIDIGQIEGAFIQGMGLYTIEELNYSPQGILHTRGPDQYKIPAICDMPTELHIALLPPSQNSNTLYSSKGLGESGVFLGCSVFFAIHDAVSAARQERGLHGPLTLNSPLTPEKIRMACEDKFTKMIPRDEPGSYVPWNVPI
The settings on record: human liver cytosol.

The target in series [2] is T2, AOX1 (Macaca mulatta, UniProt I0FRB2).
T2 sequence (I0FRB2 1-1338): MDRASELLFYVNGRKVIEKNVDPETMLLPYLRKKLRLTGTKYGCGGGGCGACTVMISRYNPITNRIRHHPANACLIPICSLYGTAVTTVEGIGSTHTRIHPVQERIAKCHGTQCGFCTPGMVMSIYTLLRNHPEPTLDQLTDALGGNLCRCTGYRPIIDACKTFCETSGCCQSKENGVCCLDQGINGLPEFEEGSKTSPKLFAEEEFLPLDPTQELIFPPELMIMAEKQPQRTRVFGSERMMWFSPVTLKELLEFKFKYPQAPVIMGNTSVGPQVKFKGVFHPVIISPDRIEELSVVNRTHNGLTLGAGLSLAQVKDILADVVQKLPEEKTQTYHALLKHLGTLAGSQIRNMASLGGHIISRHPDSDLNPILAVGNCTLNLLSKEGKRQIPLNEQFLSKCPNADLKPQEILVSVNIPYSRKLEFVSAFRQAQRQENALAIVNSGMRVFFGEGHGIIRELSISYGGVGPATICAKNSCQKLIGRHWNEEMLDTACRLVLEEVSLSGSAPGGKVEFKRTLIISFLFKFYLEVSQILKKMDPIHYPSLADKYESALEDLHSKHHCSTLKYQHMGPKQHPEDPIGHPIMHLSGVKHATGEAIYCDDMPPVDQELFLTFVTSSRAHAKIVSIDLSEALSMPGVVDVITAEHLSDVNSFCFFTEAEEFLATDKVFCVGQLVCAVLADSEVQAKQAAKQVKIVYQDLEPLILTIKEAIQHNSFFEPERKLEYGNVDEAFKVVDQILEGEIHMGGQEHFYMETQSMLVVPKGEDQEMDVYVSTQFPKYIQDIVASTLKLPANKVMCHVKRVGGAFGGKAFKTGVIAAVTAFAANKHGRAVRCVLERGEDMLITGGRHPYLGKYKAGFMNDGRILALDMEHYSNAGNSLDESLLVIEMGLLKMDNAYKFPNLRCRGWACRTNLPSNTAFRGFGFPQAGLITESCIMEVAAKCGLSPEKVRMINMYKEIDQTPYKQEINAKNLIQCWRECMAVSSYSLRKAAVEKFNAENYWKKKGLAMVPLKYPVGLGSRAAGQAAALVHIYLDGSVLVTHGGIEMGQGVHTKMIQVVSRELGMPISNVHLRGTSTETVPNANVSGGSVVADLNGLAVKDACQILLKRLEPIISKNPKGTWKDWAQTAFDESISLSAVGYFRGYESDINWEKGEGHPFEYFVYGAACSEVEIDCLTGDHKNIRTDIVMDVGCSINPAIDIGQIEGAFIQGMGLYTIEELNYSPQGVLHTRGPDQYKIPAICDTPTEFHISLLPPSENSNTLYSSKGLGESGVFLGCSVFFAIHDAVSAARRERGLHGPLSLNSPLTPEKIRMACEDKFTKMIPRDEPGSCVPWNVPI
As to conditions: monkey liver cytosol; calculated from Vmax and AOX1 level (figure 1A).

For the compound `CN(Cc1cnc2nc(N)nc(N)c2n1)c1ccc(C(=O)N[C@@H](CCC(=O)O)C(=O)O)cc1` [Methotrexate, 4-amino-N^1^0-methylpteroglutamic acid], the “kcat (Vmax/[AOX1])” value in series [1] (calculated from Vmax and AOX1 level (figure 1A)) is 0.04 s⁻¹; in series [2] it was 0.583 s⁻¹. Further, the “In vitro CLint AOX1” value in series [1] (from specific activity and Km) was 0.9 min^− 1mM^−1.
